Measurements from patent US5476840A, “New hexapeptidic derivatives, preparation process and use as medicaments of these new derivatives” (Roussel Uclaf, priority 1992, dated 1995).
Ends that are not written are not given here.

Legend:
[1] = system: pressure response to endothelin; assay: Antagonism of the effects of endothelin in a demedullated rat (inhibition of the pressure response to endothelin 1); format: in vivo
Procedure: Male Sprague-Dawley rats are anaesthetized with Nembutal (60 mg/kg) injected by intraperitoneal route. The animals are then demedullated, put under assisted respiration (1 ml/100 g--50 insufflations per minute), then the vagus nerves are sectioned. A carotid artery is catheterized to record the arterial pressure and the products to be studied are injected into the pudendal vein. Ten minutes after the intravenous injection of the solvent or compounds to be tested, the animals receive administrations of endothelin 1 in a cumulative manner (1, 3, 10 and 30 μg/kg i.v.) every 2 minutes. The antagonistic activity is expressed as a percentage of the inhibition of the pressure response to endothelin administered alone, at doses of 3 and 10 μg/kg.

demedullated rat = assay: Vasoconstrictive activity in a demedullated rat (increase in mean arterial pressure); format: in vivo; conditions: dose 10 mg/kg, venous route, demedullated male Sprague-Dawley rat
Procedure: Male Sprague-Dawley rats are anaesthetized with Nembutal (60 mg/kg) injected by intraperitoneal route. The animals are then demedullated, put under assisted respiration (1 ml/100 g--50 insufflations per minute), then the vagus nerves are sectioned. A carotid artery is catheterized to record the arterial pressure and the products to be studied are injected into the pudendal vein.
The animals receive endothelin 1 or the compound to be tested as cumulative injections by venous route, the administrations being spaced 2 minutes apart.
The increase in mean arterial pressure (MAP) induced by each compound is measured and expressed as a percentage variation relative to the initial pressure.

## HAAIIW [Example 1]
[1]; dose 5 μg/kg i.v., 3 μg endothelin
  Percent change in pressure response to endothelin (negative = reduction): -27
[1]; dose 5 μg/kg i.v., 10 μg endothelin
  Percent change in pressure response to endothelin (negative = reduction): -19
[1]; dose 10 μg/kg i.v., 3 μg endothelin
  Percent change in pressure response to endothelin (negative = reduction): -60
[1]; dose 10 μg/kg i.v., 10 μg endothelin
  Percent change in pressure response to endothelin (negative = reduction): -33
Demedullated rat
  % increase of MAP: +8%
